Data taken from US10689354B2, “Aminoazole derivative” (Teijin Pharma Limited, priority 2015, dated 2020).

Columns and labels:
[1] = target: T1, androgen receptor (AR-LBD) (Rattus norvegicus, UniProt P15207); test: Evaluation of androgen receptor affinity (PolarScreen Androgen Receptor Competitor Assay Kit, Red; fluorescence polarization); conditions: 22° C. for 5 hours, relative to binding rate of 1 μM DHT, read-out: AR affinity (pEC50) (converted)
T1 construct: 5 μL of 2×AR-LBD/Fluoromone AL Red Complex contained in the kit; purchased Invitrogen
T1 sequence (P15207 651-882 limits assumed): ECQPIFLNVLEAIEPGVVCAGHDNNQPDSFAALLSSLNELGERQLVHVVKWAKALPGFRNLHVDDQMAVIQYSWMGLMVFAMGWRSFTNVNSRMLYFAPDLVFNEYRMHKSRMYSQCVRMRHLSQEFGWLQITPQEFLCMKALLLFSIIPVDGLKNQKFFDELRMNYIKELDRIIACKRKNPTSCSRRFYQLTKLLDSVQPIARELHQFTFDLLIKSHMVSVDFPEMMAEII
Outline: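 Fluorescence polarization read-out after 5 h at 22° C of compound with a red-fluorophore-labelled AR-LBD complex. Displacement is scaled against 1 μM DHT, and the log reciprocal of the concentration reaching half that effect gives pEC50 via four-parameter curve fitting.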

human androgen receptor = target: T2, human androgen receptor (Homo sapiens, UniProt P10275); test: Reporter assay of an androgen receptor responsive sequence (luciferase, transiently transfected HEK293 cells); assay type: cell-based; conditions: 24 hours incubation, relative to activity of 100 nM DHT, read-out: AR transcriptive activity (pEC50) (converted)
T2 construct: expressed in transfected cells; host or cells: HEK293
T2 sequence (P10275 1-920): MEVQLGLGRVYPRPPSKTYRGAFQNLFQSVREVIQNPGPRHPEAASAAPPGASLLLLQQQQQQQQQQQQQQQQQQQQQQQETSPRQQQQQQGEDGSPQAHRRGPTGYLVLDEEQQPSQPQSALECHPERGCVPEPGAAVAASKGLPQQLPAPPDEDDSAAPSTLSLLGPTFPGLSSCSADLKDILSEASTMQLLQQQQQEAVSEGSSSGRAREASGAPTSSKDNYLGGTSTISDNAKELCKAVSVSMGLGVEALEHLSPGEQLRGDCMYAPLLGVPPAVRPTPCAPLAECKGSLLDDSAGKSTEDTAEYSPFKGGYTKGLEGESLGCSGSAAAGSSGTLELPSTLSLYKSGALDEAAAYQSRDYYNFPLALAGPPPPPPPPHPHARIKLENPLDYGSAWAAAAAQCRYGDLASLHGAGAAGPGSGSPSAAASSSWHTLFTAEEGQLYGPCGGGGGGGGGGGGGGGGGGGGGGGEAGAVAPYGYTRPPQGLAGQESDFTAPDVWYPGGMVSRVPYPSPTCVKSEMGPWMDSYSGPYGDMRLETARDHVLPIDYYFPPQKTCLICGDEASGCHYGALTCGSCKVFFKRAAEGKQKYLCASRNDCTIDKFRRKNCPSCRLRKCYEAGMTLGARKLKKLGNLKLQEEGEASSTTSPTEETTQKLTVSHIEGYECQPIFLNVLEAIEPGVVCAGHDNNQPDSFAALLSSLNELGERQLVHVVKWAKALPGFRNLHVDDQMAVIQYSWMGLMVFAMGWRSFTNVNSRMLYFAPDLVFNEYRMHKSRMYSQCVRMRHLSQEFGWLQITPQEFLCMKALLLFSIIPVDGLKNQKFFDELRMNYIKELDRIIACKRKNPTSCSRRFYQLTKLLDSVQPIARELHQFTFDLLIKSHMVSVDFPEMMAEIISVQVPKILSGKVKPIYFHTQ
Outline: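 HEK293 cells transiently transfected for 3 h with ARE-firefly luciferase, full-length human AR and TK-Renilla plasmids, then exposed to compound for 24 h at 37 °C in 5% charcoal-treated FBS/DMEM. Dual-Glo luminescence read; pEC50 from 4-parameter fit relative to 100 nM DHT.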

Row | EC50 [1] [nM] | EC50 (human androgen receptor) [nM] | Structure (SMILES)
1 | 200 | 7940 | Cc1sc(N(Cc2ccc(OCCCO)cc2)c2ccc(C#N)cc2)nc1C(=O)NS(C)(=O)=O [Compound 579, 2-[4-cyano-N-[[4-(3-hydroxypropoxy)phenyl]methyl]anilino]-5-methyl-N-methylsulfonyl-thiazole-4-carboxamide]
2 | 25.1 | 631 | Cc1sc(N(Cc2ccc(OCC(F)(F)F)cc2)c2ccc(C#N)cc2)nc1C(=O)NS(C)(=O)=O [Compound 580, 2-[4-cyano-N-[[4-(2,2,2-trifluoroethoxy)phenyl]methyl]anilino]-5-methyl-N-methylsulfonyl-thiazole-4-carboxamide]
3 | 39.8 | 794 | COCCCOc1ccc(CN(c2ccc(C#N)cc2)c2nc(C(=O)NS(C)(=O)=O)c(C)s2)cc1 [Compound 582, 2-[4-cyano-N-[[4-(3-methoxypropoxy)phenyl]methyl]anilino]-5-methyl-N-methylsulfonyl-thiazole-4-carboxamide]
4 | 39.8 | 2000 | COC[C@@H](C)Oc1ccc(CN(c2ccc(C#N)cc2)c2nc(C(=O)NS(C)(=O)=O)c(C)s2)cc1 [Compound 583, 2-[4-cyano-N-[[4-[(1R)-2-methoxy-1-methyl-ethoxy]phenyl]methyl]anilino]-5-methyl-N-methylsulfonyl-thiazole-4-carboxamide]
5 | 79.4 | 3160 | COC[C@H](C)Oc1ccc(CN(c2ccc(C#N)cc2)c2nc(C(=O)NS(C)(=O)=O)c(C)s2)cc1 [Compound 584, 2-[4-cyano-N-[[4-[(1S)-2-methoxy-1-methyl-ethoxy]phenyl]methyl]anilino]-5-methyl-N-methylsulfonyl-thiazole-4-carboxamide]
6 | 79.4 | 501 | Cc1sc(N(Cc2cccc(OC(C)C)c2)c2ccc(C#N)cc2)nc1C(=O)NS(C)(=O)=O [Compound 585, 2-[4-cyano-N-[(3-isopropoxyphenyl)methyl]anilino]-5-methyl-N-methylsulfonyl-thiazole-4-carboxamide]
7 | 31.6 | 200 | Cc1sc(N(Cc2ccc(C3CC3)cc2)c2ccc(C#N)cc2)nc1C(=O)NS(C)(=O)=O [Compound 588, 2-[4-cyano-N-[(4-cyclopropylphenyl)methyl]anilino]-5-methyl-N-methylsulfonyl-thiazole-4-carboxamide]
8 | 1000 | > 10000 | Cc1sc(N(Cc2ccc(N3CCCC3=O)cc2)c2ccc(C#N)cc2)nc1C(=O)NS(C)(=O)=O [Compound 589, 2-[4-cyano-N-[[4-(2-oxopyrrolidin-1-yl)phenyl]methyl]anilino]-5-methyl-N-methylsulfonyl-thiazole-4-carboxamide]
9 | 31.6 | 158 | Cc1sc(N(Cc2ccc(-c3ccccc3F)cc2)c2ccc(C#N)cc2)nc1C(=O)NS(C)(=O)=O [Compound 590, 2-[4-cyano-N-[[4-(2-fluorophenyl)phenyl]methyl]anilino]-5-methyl-N-methylsulfonyl-thiazole-4-carboxamide]
10 | 158 | 794 | Cc1sc(N(Cc2ccc(-c3ccccc3F)nc2)c2ccc(C#N)cc2)nc1C(=O)NS(C)(=O)=O [Compound 591, 2-[4-cyano-N-[[6-(2-fluorophenyl)-3-pyridyl]methyl]anilino]-5-methyl-N-methylsulfonyl-thiazole-4-carboxamide]
11 | 100 | 794 | Cc1sc(N(Cc2ccc(-c3ccc(F)cc3)nc2)c2ccc(C#N)cc2)nc1C(=O)NS(C)(=O)=O [Compound 592, 2-[4-cyano-N-[[6-(4-fluorophenyl)-3-pyridyl]methyl]anilino]-5-methyl-N-methylsulfonyl-thiazole-4-carboxamide]
12 | 251 | 200 | Cc1sc(N(Cc2ccc(C3CC3)nc2)c2ccc(C#N)cc2)nc1C(=O)NS(C)(=O)=O [Compound 593, 2-[4-cyano-N-[(6-cyclopropyl-3-pyridyl)methyl]anilino]-5-methyl-N-methylsulfonyl-thiazole-4-carboxamide]
13 | 79.4 | 1580 | Cc1sc(N(Cc2ccc(-c3ccccc3F)cn2)c2ccc(C#N)cc2)nc1C(=O)NS(C)(=O)=O [Compound 594, 2-[4-cyano-N-[[5-(2-fluorophenyl)-2-pyridyl]methyl]anilino]-5-methyl-N-methylsulfonyl-thiazole-4-carboxamide]
14 | 100 | 1260 | Cc1sc(N(Cc2ccc(-c3ccc(F)cc3)cn2)c2ccc(C#N)cc2)nc1C(=O)NS(C)(=O)=O [Compound 595, 2-[4-cyano-N-[[5-(4-fluorophenyl)-2-pyridyl]methyl]anilino]-5-methyl-N-methylsulfonyl-thiazole-4-carboxamide]
15 | 316 | 3980 | Cc1sc(N(Cc2ccc(-c3ccc(F)cn3)nc2)c2ccc(C#N)cc2)nc1C(=O)NS(C)(=O)=O [Compound 596, 2-[4-cyano-N-[[6-(5-fluoro-2-pyridyl)-3-pyridyl]methyl]anilino]-5-methyl-N-methylsulfonyl-thiazole-4-carboxamide]
16 | 398 | 1000 | CS(=O)(=O)NC(=O)c1csc(N(Cc2ccccc2)c2ccc(C#N)cc2)n1 [Compound 597, 2-(N-benzyl-4-cyano-anilino)-N-methylsulfonyl-thiazole-4-carboxamide]
17 | 251 | 2000 | Cc1oc(N(Cc2ccccc2)c2ccc(C#N)cc2)nc1C(=O)NS(C)(=O)=O [Compound 598, 2-(N-benzyl-4-cyano-anilino)-5-methyl-N-methylsulfonyl-oxazole-4-carboxamide]
18 | 63.1 | 79.4 | CCc1sc(N(Cc2ccccc2)c2ccc(C#N)cc2)nc1C(=O)NS(C)(=O)=O [Compound 599, 2-(N-benzyl-4-cyano-anilino)-5-ethyl-N-methylsulfonyl-thiazole-4-carboxamide]
19 | 100 | > 10000 | CC(C)c1sc(N(Cc2ccccc2)c2ccc(C#N)cc2)nc1C(=O)NS(C)(=O)=O [Compound 600, 2-(N-benzyl-4-cyano-anilino)-5-isopropyl-N-methylsulfonyl-thiazole-4-carboxamide]
20 | 50.1 | 31.6 | CS(=O)(=O)NC(=O)c1nc(N(Cc2ccccc2)c2ccc(C#N)cc2)sc1Br [Compound 603, 2-(N-benzyl-4-cyano-anilino)-5-bromo-N-methylsulfonyl-thiazole-4-carboxamide]
21 | 39.8 | 5010 | Cc1oc(N(Cc2ccc(OC(F)(F)F)cc2)c2ccc(C#N)cc2)nc1C(=O)NS(C)(=O)=O [Compound 607, 2-[4-cyano-N-[[4-(trifluoromethoxy)phenyl]methyl]anilino]-5-methyl-N-methylsulfonyl-oxazole-4-carboxamide]
22 | 31.6 | 316 | Cc1oc(N(Cc2ccc(Cl)c(Cl)c2)c2ccc(C#N)cc2)nc1C(=O)NS(C)(=O)=O [Compound 608, 2-[4-cyano-N-[(3,4-dichlorophenyl)methyl]anilino]-5-methyl-N-methylsulfonyl-oxazole-4-carboxamide]

Row | Structure (SMILES) | EC50 [1] [nM] | EC50 (human androgen receptor) [nM]
23 | Cc1sc(N(Cc2ccc(OC3CCCC3)cc2)c2ccc(C#N)cc2)nc1C(=O)NS(C)(=O)=O [Compound 581, 2-[4-cyano-N-[[4-(cyclopentoxy)phenyl]methyl]anilino]-5-methyl-N-methylsulfonyl-thiazole-4-carboxamide] | 25.1 | 501
24 | Cc1sc(N(Cc2cccc(OCC(C)C)c2)c2ccc(C#N)cc2)nc1C(=O)NS(C)(=O)=O [Compound 586, 2-[4-cyano-N-[(3-isobutoxyphenyl)methyl]anilino]-5-methyl-N-methylsulfonyl-thiazole-4-carboxamide] | 79.4 | 7940
